Measurements taken from patent publication US10533044B2, “Integrin Antagonists” (The General Hospital Corporation, priority 2014, dated 2020).
Positions of bridges follow the written chain, without caps; N, C: chain ends. Non-standard residues stand in square brackets, D forms with d. Residues, ends and D or L forms follow the SMILES beside them. hArg = N=C(N)NCCCC[C@H](N)C(=O)O; Mpa = O=C(O)CCS

Assays:
αVβ3^N/S [1] = biological target: T1, αVβ3^N/S (Homo sapiens, UniProt P05106+P06756, N365S)
platelet integrin αIIbβ3 = platelet integrin αIIbβ3 (Homo sapiens, UniProt P05106+P08514); conditions: parenteral use; cited from earlier work
Chain of platelet integrin αIIbβ3 (P08514 32-887 limits assumed): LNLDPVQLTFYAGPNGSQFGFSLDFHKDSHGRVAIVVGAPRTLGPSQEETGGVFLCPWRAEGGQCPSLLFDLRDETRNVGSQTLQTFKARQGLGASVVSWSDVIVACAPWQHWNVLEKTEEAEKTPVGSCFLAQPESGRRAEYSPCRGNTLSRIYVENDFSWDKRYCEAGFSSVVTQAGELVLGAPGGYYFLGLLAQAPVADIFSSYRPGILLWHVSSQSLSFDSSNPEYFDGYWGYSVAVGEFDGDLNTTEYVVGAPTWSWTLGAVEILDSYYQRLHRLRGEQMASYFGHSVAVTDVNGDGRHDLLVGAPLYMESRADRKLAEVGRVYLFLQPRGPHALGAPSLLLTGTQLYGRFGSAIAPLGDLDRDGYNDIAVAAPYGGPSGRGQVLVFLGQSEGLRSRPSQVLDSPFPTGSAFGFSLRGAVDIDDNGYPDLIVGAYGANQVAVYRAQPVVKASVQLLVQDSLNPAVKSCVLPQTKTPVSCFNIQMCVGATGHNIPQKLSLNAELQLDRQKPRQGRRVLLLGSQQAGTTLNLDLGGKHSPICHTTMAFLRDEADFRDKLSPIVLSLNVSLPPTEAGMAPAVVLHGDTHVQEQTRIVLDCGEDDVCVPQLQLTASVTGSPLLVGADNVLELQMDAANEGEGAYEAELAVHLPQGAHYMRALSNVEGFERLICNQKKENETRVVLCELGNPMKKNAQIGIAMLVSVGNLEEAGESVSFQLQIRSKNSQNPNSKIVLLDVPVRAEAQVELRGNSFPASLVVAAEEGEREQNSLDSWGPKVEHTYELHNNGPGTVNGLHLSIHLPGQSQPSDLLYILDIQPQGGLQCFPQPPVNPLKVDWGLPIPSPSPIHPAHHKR
Chain of platelet integrin αIIbβ3 (P08514 891-1039 partner limits assumed): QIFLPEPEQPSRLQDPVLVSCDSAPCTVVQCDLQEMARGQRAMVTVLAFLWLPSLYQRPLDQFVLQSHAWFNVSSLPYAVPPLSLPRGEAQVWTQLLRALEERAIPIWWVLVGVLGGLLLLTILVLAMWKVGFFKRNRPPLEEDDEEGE
Chain of platelet integrin αIIbβ3 (P05106 27-788): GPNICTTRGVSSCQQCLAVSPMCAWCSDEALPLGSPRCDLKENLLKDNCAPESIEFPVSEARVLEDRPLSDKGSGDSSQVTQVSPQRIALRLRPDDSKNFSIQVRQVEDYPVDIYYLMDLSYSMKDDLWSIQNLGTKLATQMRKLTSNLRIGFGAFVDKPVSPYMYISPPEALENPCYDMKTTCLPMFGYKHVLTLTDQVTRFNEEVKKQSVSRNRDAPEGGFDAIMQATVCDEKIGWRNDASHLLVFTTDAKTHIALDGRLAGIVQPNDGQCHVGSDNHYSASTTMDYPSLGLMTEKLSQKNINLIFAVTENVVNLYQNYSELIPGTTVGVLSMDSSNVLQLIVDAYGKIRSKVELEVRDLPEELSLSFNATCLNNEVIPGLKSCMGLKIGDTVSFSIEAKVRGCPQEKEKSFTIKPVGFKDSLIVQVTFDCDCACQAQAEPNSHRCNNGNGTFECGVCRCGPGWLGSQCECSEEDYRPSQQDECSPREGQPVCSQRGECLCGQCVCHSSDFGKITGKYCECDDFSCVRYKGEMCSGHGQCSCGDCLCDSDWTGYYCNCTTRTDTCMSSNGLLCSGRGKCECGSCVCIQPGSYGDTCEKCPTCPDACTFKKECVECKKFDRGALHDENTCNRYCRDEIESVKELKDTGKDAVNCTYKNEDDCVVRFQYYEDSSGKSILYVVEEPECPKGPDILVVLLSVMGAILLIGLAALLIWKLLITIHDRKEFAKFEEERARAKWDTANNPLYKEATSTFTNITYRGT

αVβ3 = test: AP5 LIBS expression on αVβ3^N/S or Mn2+-activated αVβ3 in presence of R-epti-D; type: cell-based; conditions: αVβ3^N/S in Ca2+/Mg2+ or Mn2+-activated αVβ3; preliminary study
Procedure: FIG. 16. […] One experiment was done under each condition. […] Common residues are in black. […] Spheres represent the metal ion at MIDAS.
K562-αVβ3 cells, transiently transfected HEK293T or αVβ3^+M21 cells (0.5×10^6 in 100 μl WB) were incubated in the absence or presence of unlabeled soluble FN10 (5 μg) in Ca^2+/Mg^2+ or in Mn^2+ (30 min; at 25° C.). Alexa647-labeled AP5 Fab (plus Alexa488-labeled AP3, when HEK293T cells were used), unlabeled anti-LIBS-1 (all to 10 μg/ml) or LIBS-6 ascites (to 1:50 dilution) were added, and the cells incubated for an additional 30 min before washing. APC-labeled goat anti-mouse Fc-specific antibody was added to anti-LIBS-1- or anti-LIBS-6-bound M21 cells, cells were incubated for an additional 30 min at 4° C. then washed, resuspended, fixed in 4% paraformaldehyde and analyzed by flow cytometry. LIBS epitope expression was measured and expressed as MFI (in case of K562-αVβ3 or M21 cells) and normalized (in case of HEK293T cells) by dividing its MFI by the MFI for Alexa488-labeled AP3, and multiplied by 100.

αVβ3^N/S [2] = biological target: T1, αVβ3^N/S; test: biochemical; conditions: IC50, inhibition of fibrinogen binding to αVβ3^N/S, HEK293 cells, constitutively active αVβ3^N/S

T1 sequence (P06756 31-889 limits assumed): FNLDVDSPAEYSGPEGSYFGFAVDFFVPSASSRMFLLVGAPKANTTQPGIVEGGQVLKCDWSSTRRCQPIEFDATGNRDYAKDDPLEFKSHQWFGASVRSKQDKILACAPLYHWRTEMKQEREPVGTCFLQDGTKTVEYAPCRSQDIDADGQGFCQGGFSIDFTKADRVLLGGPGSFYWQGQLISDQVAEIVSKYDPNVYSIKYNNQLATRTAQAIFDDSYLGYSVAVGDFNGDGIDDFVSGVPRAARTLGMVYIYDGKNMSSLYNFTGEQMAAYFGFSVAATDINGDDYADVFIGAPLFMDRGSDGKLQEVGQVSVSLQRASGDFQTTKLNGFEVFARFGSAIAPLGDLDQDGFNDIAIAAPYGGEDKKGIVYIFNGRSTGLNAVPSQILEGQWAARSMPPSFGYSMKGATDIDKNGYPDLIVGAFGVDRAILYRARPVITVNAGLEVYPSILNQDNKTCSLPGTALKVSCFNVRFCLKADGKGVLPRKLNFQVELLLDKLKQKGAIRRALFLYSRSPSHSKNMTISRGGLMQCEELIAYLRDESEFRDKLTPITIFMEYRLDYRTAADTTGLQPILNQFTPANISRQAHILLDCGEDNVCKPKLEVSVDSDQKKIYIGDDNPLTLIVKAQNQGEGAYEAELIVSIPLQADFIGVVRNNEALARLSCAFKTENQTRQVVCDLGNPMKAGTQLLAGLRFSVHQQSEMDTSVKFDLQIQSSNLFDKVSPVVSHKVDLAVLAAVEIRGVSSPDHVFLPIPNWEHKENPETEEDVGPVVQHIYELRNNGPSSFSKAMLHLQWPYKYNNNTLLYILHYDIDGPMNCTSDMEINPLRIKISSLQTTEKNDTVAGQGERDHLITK
T1 sequence (P06756 891-1048 partner limits assumed): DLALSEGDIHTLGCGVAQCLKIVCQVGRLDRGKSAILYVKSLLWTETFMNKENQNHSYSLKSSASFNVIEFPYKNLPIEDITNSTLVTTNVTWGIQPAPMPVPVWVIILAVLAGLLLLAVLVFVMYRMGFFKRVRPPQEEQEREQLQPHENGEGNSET
T1 sequence (P05106 27-788 N365S): as the sequence (P05106 27-788) above, with N339S counted along it

Structure (SMILES)	Binding to αVβ3 (αVβ3^N/S [1])	Patients with severe thrombocytopenia (platelet integrin αIIbβ3) [%]	AP5 LIBS expression (αVβ3)	IC50 (αVβ3^N/S [2]) [nM]	IC50 (αVβ3^N/S [2]; converted) [nM]
N=C(N)NCCCC[C@@H]1NC(=O)CCSSC[C@@H](C(N)=O)NC(=O)[C@@H]2CCCN2C(=O)[C@H](Cc2c[nH]c3ccccc23)NC(=O)[C@H](CC(=O)O)NC(=O)CNC1=O [eptifibatide] ([Mpa][hArg]GDWPC-NH2; disulfide 1-7)	does not bind	~2			
N=C(N)NCCC[C@@H]1NC(=O)CCSSC[C@@H](C(N)=O)NC(=O)[C@@H]2CCCN2C(=O)[C@@H](Cc2c[nH]c3ccccc23)NC(=O)[C@H](CC(=O)O)NC(=O)CNC1=O [R-epti-D] ([Mpa]RGD[dW]PC-NH2; disulfide 1-7)			reduced AP5 LIBS expression	2080	~2000
